Measured values from patent publication US20260374739A1, “SMALL MOLECULAR WEIGHT CHEMICAL COMPOUND TO ANTAGONIZE EPH-EPHRIN TETRAMERIZATION AND INHIBIT BIDIRECTIONAL SIGNALING” (THE BOARD OF REGENTS OF THE UNIVERSITY OF TEXAS SYSTEM, priority 2022, published 2026).
“And” between values parts separate entries of the source, which are not always exact repeats. Equal entries are not always repeated. Where two headings read alike, the source gives them in different places.

Key:
[1] = biological target: T1, EphrinB2-EphB2 (Homo sapiens, UniProt P29323); assay: Octet tetramerization inhibition, immobilized human EphrinB2 binding to 50 nM soluble human EphB2
T1 construct: soluble human EphB1-His, EphB2-His, and EphB4-His ectodomains; commercially available human EphrinB1-Fc (EB1), EphrinB2-Fc (EB2), and EphrinB3-Fc (EB3) ectodomain proteins; purchased
T1 sequence (P29323 19-543 limits assumed): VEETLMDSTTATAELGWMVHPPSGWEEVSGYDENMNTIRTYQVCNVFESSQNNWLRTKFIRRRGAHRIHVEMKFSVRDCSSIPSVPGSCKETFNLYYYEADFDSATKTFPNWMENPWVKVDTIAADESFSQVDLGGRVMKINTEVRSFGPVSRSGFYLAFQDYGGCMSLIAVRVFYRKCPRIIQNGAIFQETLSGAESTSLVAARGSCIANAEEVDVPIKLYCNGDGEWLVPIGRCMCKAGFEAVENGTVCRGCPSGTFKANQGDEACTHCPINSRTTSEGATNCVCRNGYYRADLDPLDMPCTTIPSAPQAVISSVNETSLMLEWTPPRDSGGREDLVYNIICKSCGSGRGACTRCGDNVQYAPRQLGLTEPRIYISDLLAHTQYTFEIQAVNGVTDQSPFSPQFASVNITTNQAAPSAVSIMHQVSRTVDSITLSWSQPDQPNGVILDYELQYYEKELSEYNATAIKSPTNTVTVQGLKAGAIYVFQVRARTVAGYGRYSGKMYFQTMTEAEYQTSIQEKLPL

[2] = biological target: T1, EphrinB2-EphB2; assay: Octet 80 sec association/500 sec dissociation, immobilized human EphrinB2-Fc binding to soluble human EphB2-His; details: for EphB2 Inhibition Percent, Inhibition of Association ONLY: at 3.2 μM and 80 seconds; for EphB2 Inhibition Percent, Inhibition of Association ONLY / EphB2 Inhibition Percent, Inhibition of Association-Dissociation: immobilized human EphrinB2, 25 nM soluble human EphB2; for EphB2 Inhibition Percent, Inhibition of Association-Dissociation: at 3.2 μM and 580 seconds; for inhibition at 3.2 µM: EphB2, 25 nM EphB2, 3.2 μM compound, A20-I as max control, 0* = less than 0, no inhibition
In short: (§1)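 EphrinB2-Fc captured on AHC biosensors, then soluble His-tagged EphB ectodomain (25 nM for % inhibition runs) associated 80 s and dissociated 500 s in PBS, 0.05% Tween-20, 1% DMSO ± compound. Compounds tested at 0.1–3.2 μM with a 10 μM max standard; IC50 from AUC of full traces or at 75 s and 135 s.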

[3] = biological target: T2, EphrinB2-EphB4 (Homo sapiens, UniProt P54760); assay: Octet 80 sec association/500 sec dissociation, immobilized human EphrinB2-Fc binding to soluble human EphB4-His; details: for EphB4 Inhibition Percent, Inhibition of Association ONLY: at 3.2 μM and 80 seconds; for EphB4 Inhibition Percent, Inhibition of Association ONLY / EphB4 Inhibition Percent, Inhibition of Association-Dissociation: immobilized human EphrinB2, 25 nM soluble human EphB4; for EphB4 Inhibition Percent, Inhibition of Association-Dissociation: at 3.2 μM and 580 seconds; for inhibition at 3.2 µM: EphB4, 25 nM EphB4, 3.2 μM compound, A20-I as max control, 0* = less than 0, no inhibition
T2 construct: soluble human EphB1-His, EphB2-His, and EphB4-His ectodomains; commercially available human EphrinB1-Fc (EB1), EphrinB2-Fc (EB2), and EphrinB3-Fc (EB3) ectodomain proteins; purchased
T2 sequence (P54760 16-539 limits assumed): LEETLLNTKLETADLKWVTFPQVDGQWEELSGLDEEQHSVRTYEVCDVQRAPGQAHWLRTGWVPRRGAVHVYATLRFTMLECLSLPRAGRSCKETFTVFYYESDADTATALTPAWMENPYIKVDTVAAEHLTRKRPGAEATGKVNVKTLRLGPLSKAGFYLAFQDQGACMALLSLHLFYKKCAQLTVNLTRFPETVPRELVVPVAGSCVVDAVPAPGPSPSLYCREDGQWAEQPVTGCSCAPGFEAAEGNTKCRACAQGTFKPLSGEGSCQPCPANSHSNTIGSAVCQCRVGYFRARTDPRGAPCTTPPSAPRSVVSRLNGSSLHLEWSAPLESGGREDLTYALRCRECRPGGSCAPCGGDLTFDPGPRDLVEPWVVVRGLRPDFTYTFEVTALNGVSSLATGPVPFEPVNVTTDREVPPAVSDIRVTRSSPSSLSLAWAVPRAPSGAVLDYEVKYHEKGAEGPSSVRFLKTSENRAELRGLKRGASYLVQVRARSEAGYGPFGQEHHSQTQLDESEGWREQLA
In short: as §1

[4] = Absolute Association IC50 (300 sec), Table A, EphrinB2-EphB2
[5] = Absolute Dissociation IC50 (450 sec), Table A, EphrinB2-EphB2
[6] = Relative AUC/IC50, Table A, EphrinB2-EphB2, compound 7: association only
[7] = Relative Association IC50 (300 sec), Table A, EphrinB2-EphB2
[8] = Relative Dissociation IC50 (450 sec), Table A, EphrinB2-EphB2
[9] = Absolute AUC/IC50, Table A, EphrinB2-EphB2
[10] = read-out: % Inhibition: Association + Dissociation (160 sec)
[11] = read-out: % Inhibition: Association ONLY (80 sec)

| selectivity among EphrinB2-EphB1/B2/B4 ([3]; 3.2 μM, listed as QPBN) | SMILES | IC50 [1, 4] | IC50 [1, 5] | IC50 [1, 6] | IC50 [1, 7] [µM] | IC50 [1, 8] | EphB2 Inhibition Percent, Inhibition of Association ONLY [2] | EphB2 Inhibition Percent, Inhibition of Association-Dissociation [2] | EphB4 Inhibition Percent, Inhibition of Association ONLY [3] | EphB4 Inhibition Percent, Inhibition of Association-Dissociation [3] | IC50 [1, 9] | inhibition at 3.2 µM [2, 10] [%] | inhibition at 3.2 µM [2, 11] [%] | inhibition at 3.2 µM [3, 10] [%] | inhibition at 3.2 µM [3, 11] [%] | IC50 ([1]; tetramerization inhibitor IC50 (relative), association step, surmountable tetramer) [µM] |
| --- | --- | --- | --- | --- | --- | --- | --- | --- | --- | --- | --- | --- | --- | --- | --- | --- |
|  | Oc1c(Br)cc(CN2CCOCC2)c2cccnc12 [Compound 6, 4-((7-bromo-8-hydroxyquinolin-1-ium-5-yl)methyl)morpholin-4-ium chloride] | 0.93 µM | 0.69 µM | 0.48 µM | 0.49 | 0.53 µM | 61.0% | 76.8% | 20.0% | 35.9% |  |  |  |  |  |  |
|  | Oc1c(Br)cc(CN2CCN(c3ccc(Br)cc3)CC2)c2cccnc12 [Compound 30, 7-bromo-5-((4-(4-bromophenyl)piperazin-1-ium-1-yl)methyl)-8-hydroxyquinolin-1-ium chloride] | 0.6 µM |  | 0.29 µM and 0.26 µM |  | 0.34 µM | 57.7% and 62.5% | 72.9% and 78.7% | 16.6% and 12.5% | 29.3% and 36.4% | 0.26 µM |  |  |  |  |  |
|  | Oc1ccc(CN2CCN(Cc3ccc(C(F)(F)F)cc3)CC2)c2cccnc12 [Compound 48, 5-((4-(4-(trifluoromethyl)benzyl)piperazin-1-yl)methyl)quinolin-8-ol] | > 1.6 µM | > 1.6 µM | > 1.6 µM | > 1.6 | > 1.6 µM |  |  |  |  | > 1.6 µM | 46.2 | 21.3 | 0 | 0 |  |
| more selective for EphB1 | Oc1ccc(CN2CCN(Cc3ccccc3)CC2)c2cccnc12 [Compound 41, 5-((4-benzylpiperazin-1-yl)methyl)quinolin-8-ol] | 2.82 µM and 3.02 µM | 3.02 µM and 3 µM | 2.14 µM | 1.82 | 2.24 µM and 2 µM |  |  |  |  | 2.09 µM and > 3.2 µM | 25.3 | 9.1 | 2.6 | 0 |  |
|  | Oc1c(Cl)cc(CN2CCOCC2)c2cccnc12 [Compound 4, 4-((7-chloro-8-hydroxyquinolin-1-ium-5-yl)methyl)morpholin-4-ium chloride] | 1.26 µM | 0.76 µM | 0.51 µM | 0.53 | 0.55 µM | 64.1% | 78.1% | 16.8% | 35.5% | 0.93 µM |  |  |  |  |  |
|  | OCc1ccc2c(CN3CCOCC3)cc(Br)c(O)c2n1 [Compound 13, 7-bromo-2-(hydroxymethyl)-5-(morpholinomethyl)quinolin-8-ol] | > 3.2 µM | 2.51 µM | 1.45 µM | 1.41 | 1.54 µM |  |  |  |  | > 3.2 µM | 68.4 | 50.5 | 7.6 | 0 | ~1.6 |
